The values below come from US20130053434A1, “IRREVERSIBLE INHIBITORS USEFUL FOR THE TREATMENT OF KINASE-RELATED PATHOLOGIES” (CENTRE NATIONAL DE LA RECHERCHE SCIENTIFIQUE, priority 2009, published 2013).

In one data set the test system is RENCA-LN cells. In words: RENCA cell proliferation assay. In kind it is cell-based, Murine. The protocol:
Murine RENCA cells were originally obtained from a tumor that arose spontaneously in the kidney of BALB/c mice. Histologically, RENCA consists of granular cell type adenocarcinoma, which is pleomorphic with large nuclei. To obtain RENCA-LN, RENCA cells were transduced using a retrovirus encoding a luciferase-neomycin fusion protein and selected using 1 mg/ml G418. RENCA-LN cells were plated with 1.500 cells/150 μl/well in DMEM supplemented with 10% FCS in 96 well culture dishes. The following day the serial diluted test samples (from 1 mM to 0.1 μM in DMSO) were mixed with medium (1:25) and 50 μl of the mix was added to each well of the cultured cells (1:4) resulting in a final DMSO concentration of 1%. Cells were grown for 72 h at 10% CO2 and 37° C. After 72 h RENCA-LC cells were lysed in 100 μL luciferase assay buffer, and 10 μl of the lysate was assayed for luciferase activity. The mean value of the low controls of each 96 well cell culture plate represents the background which was subtracted from all other data points of the respective plate. Raw data were converted into percent proliferation relative to the high control, which were set to 100%. […] determination was done with GraphPad Prism 5.01 software with constrain of bottom to 0 and top to 100 using a nonlinear regression curve fit with variable hill slope. The equation is a four-parameter logistic equation. […]

For data set [1], the system named is orthotopically implanted RENCA-LN cells. In words: orthotopic murine renal cell carcinoma (RENCA) model, in vivo efficacy. To be noted: for tumor growth by bioluminescence and primary tumor volume: 20 mg/kg i.p. As for the experimental part: RENCA-LN cells were obtained and cultured as described above. Sixty female BALB/c mice of 5 to 6 weeks were orthotopically implanted RENCA-LN cells into the left kidney (4×10^5 cells in 25 μl aliquots into the subcapsular space through a flank incision, Day 0). The mice were randomly divided into 5 groups of 12 mice each. On day 2, therapy was initiated. Animals in the vehicle control group (group 1) received 10 ml/kg Vehicle (PBS w/o Ca/Mg, 10% DMSO, 40% PEG-300) i.p. once daily until day 19. Animals of positive control group (group 2) received 40 mg/kg Sunitinib (Sutent®) p.o. once daily until day 20. Animals of treatment group 3 and 4 received 20 mg/kg of 3 once daily and every other day respectively (i.p.). Animals of treatment group 5 received 20 mg/kg of 5 once daily (i.p.). Due to partial weight loss, therapy in Groups 3 and 5 was suspended on days 11 and 12 and stopped on day 17. On day 20, the study was terminated and a necropsy performed. All animals were weighted, anaesthetised by isoflurane and killed by exsanguination. Two animals in group 1 were found dead on day 19 and 1 animal in group 3 and 5 on day 11 and 9 respectively. At necropsy, primary tumor weight and volume, lung weight and number of lung metastases were determined. Primary tumor tissues were collected and divided into two parts. One part of each tumor was snap-frozen in liquid nitrogen and stored at −80° C. whereas the other part was analyzed via ex vivo bioluminescence imaging. During the course of the study, the growth of the orthotopically implanted RENCA tumors was monitored on days 7, 14 and 19 using in vivo bioluminescence imaging. For this purpose, luciferin was injected intraperitoneally (i.p.) into the mice and light emission was measured post injection (10 min) using a NightOWL LB 981 bioluminescence imaging system (Berthold Technologies, Germany). The migration of RENCA tumor cells into the lung (metastasis) was analyzed post necropsy by counting nodules and using the luciferase assay. For this purpose, lungs were collected, homogenized, and assayed for luciferase activity using the kit from Promega (E1501) according to the manufacturer's instructions. Protein concentrations were determined using a Bradford assay and used to normalize luciferase activities (except for the primary tumor). A histological examination of the tumor vasculature was performed. For this purpose, cryosections of primary tumor tissues (thickness=5-10 μm) from the snap-frozen portion of the organ and blood vessels were visualized by immunohistochemical staining for CD 31 (PECAM-1; PharMingen, San Diego, Calif.). […] Statistical analysis of efficacy data was done using the Mann Whitney test.

The next data set is described as follows: dose finding study. The format is in vivo. The source says: (§1) As a bench mark, the natural product LL Z-1640-2 was also included in the assay. […] Compound 3 and 5 were selected as prototypical examples of modified RALs for further investigations. As described in the method section, both of these compounds derived from a common synthetic intermediate and can be readily prepared in gram quantities. […] Primary tumor weight confirmed these observations. A key objective of this study was to measure the effect of these compounds on metastasis. Upon termination of the study, the lungs were inspected for metastatic nodules and the ex-vivo luciferase activity of lung homogenates was measured. […] It should be noted that these compounds were also shown to inhibit the inflammation pathways which have been implicated in facilitating metastasis.

The nature of data set [2]: solubility in aqueous buffers. In kind it is physicochemical. Conditions: compared with 5.
From the text: as §1

The nature of the next data set: plasma half-life. In kind it is in vitro ADME.
In another data set the test system is VEGFRs. In words: KinomeScan kinase selectivity profile (50 kinases): VEGFRs. In kind it is binding. To be noted: 1 μM. The source says: The selectivity profile was measure using the KinomeScan™ technology (http://www.kinomescan.com/) based on active-site dependent competition binding assay (Karaman, M. W., et al. (2008) Nat. Biotechnol. 26, 127-32; Fabian, M. A., et al. (2005) Nat. Biotechnol. 23, 329-36). Compounds 3 and 5 were profiled against a panel of 50 kinases including 42 kinases from the group of 48 kinases predicted by Santi et al. (Schirmer, A., et al. (2006) Proc. Natl. Acad. Sci. USA 103, 4234-9) to be targeted by hypothemycin and 5 mutants of FLT3 as well as 3 mutants of KIT. Both compounds were assayed at 1 μM. The results are expressed as a percentage of signal between a negative (DMSO) and positive (know binder) control [(test compound−positive control)/([…])×100].

The next data set addresses ERK2 (Homo sapiens, UniProt P28482). To be noted: covalent Michael adduct with cys166; cited from earlier work.
The conditions of data set [3]: in vivo; cited from earlier work.
For another data set, the system named is colon and lung tumors. Conditions: mice bearing colon and lung tumors; cited from earlier work.

ERK2, sequence (P28482 whole entry, species assumed): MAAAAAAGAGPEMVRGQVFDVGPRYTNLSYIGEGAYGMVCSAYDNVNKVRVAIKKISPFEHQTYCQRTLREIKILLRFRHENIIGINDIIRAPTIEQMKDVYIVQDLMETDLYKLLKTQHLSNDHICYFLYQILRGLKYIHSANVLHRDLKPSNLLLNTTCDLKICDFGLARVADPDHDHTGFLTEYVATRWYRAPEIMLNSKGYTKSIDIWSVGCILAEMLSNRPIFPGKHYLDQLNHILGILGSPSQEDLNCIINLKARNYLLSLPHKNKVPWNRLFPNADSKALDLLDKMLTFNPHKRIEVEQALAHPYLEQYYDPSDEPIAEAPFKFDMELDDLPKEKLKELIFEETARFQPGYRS

By IC50 is commonly meant the concentration needed to halve the response being measured. As for `C[C@H]1C/C=C\C(=O)[C@@H](O)[C@@H](O)CCOc2cc(O)cc(O)c2C(=O)O1` [1agh], in the data set with RENCA-LN cells (FIG. 14), the “efficacy in inhibiting renal carcinoma cell line compared with natural product LL Z-1640-2” value was “as effective as the natural product”. Further, the half-inhibitory concentration (IC50) in the data set on RENCA-LN cells (Mus musculus, Renca, FIG. 12, read-out: IC50, renal carcinoma line (RENCA)) was 0.1 to 0.5 µM. Besides, the “tumor vasculature histology (CD-31 staining), angiogenesis” value in data set [1] (20 mg, q1d) is recorded as “strong inhibition of angiogenesis”. The “tumor growth in mice” value in data set [1] (20 and 10 mg/kg) is “clear reduction in tumor growth”. Besides, the “tumor growth by bioluminescence and primary tumor volume” value in data set [1] (administered every other day) is recorded as “marginal decrease activity”; in data set [1] (daily dosing) it was “highly significant reduction of tumor growth”. This molecule also came in with an animal weights decrease in data set [1] (between day 2 and day 5, q1d) of 8%. For the same molecule, the “lung metastasis (metastatic nodules)” value in data set [1] (compared with untreated group, lungs inspected at termination) is recorded as “A similar result”. Moreover, the “luciferase activity from lung homogenates” value in data set [1] (ex vivo, compared with untreated group) was “A similar result”. Moreover, the tolerability entry in the data set “dose finding study” (25 mg/kg) was “tolerated”. Besides, the “toxicity at high dose” value in “dose finding study” (75 mg/kg) is on record as “systemic toxicity”. In data set [2], the “solubility in aqueous buffers” value is recorded as “notably more soluble in aqueous buffers than 5”. Further, the plasma half-life result in the data set “plasma half-life” is reported as “short plasma half life”. In the data set with VEGFRs, the “inhibition of VEGFRs in kinase profile” value is “strongly inhibited”.
Take `COc1cc(O)c2c(c1)[C@H]1O[C@@H]1C[C@H](O)[C@H](O)C(=O)/C=C\C[C@H](C)OC2=O` [hypothemycin]: the “inactivation of ERK2” value at ERK2 is “irreversibly inactivates ERK2”. In data set [3], the “efficacy in animal models” value is recorded as “effective in animal models”. In addition, in the data set on colon and lung tumors, the tumor growth inhibition result is given as “only modest growth inhibition”.
